Laboratory results: US11213512B2, “Bis-amino acid based compound and use thereof” (THE CURATORS OF THE UNIVERSITY OF MISSOURI, priority 2016, dated 2022)
Like-named read-outs stand apart in the source and are kept apart here.

Key:
[1] = test system: E. coli K12; test: MIC, CLSI/NCCLS broth microdilution; format: cell-based, Escherichia coli; settings: read-out: Minimal Inhibitory Concentration (MIC) E. coli K12
Method: (§1) Two different strains of E. coli (Gram-negative) were used. The laboratory strain of E. coli, K-12 (ATCC Accession No. 700926), was used for preliminary MIC determinations. The tetracycline resistant strain of E. coli (Tet^R) was prepared by transforming competent JM109 E. coli (Promega) with the pBR322 plasmid (Carolina Biologicals) using the manufacturers protocol. This plasmid contains two resistance genes: the tetA gene expresses the tetracycline resistance TetA efflux pump (Sapunaric and Levy, Microbiol. 2005, 151, 2315-2322) and the amp^R gene expresses a β-lactamase enzyme (Bolivar, et al; Gene 1977, 2, 95-113) that cleaves the four membered ring of penicillin derivatives. The resulting E. coli, which we designate Tet^R E. coli, is both tetracycline and ampicillin resistant. The TetA efflux pump belongs to the major facilitator superfamily (MFS), spans the cytoplasmic membrane, and transports tetracycline from the cell cytoplasm to the periplasmic space (Thanassi, et al., J. Bacteriol. 1995, 177, 998-1007). This active efflux utilizes the proton gradient as an energy source (Levy, Antimicrob. Agents Chemother. 1992, 36, 695-703). One Gram-positive strain, S. aureus (ATCC Accession No. 29213), used for MIC study expresses the MFS type NorA efflux pump and is methicillin sensitive. MFS type efflux pumps are clinically relevant for resistance in both Gram-positive and Gram-negative bacteria (Sun, et al., Biochem. Biophys. Res. Commun. 2014, 453, 254-267). A Staphylococcus aureus 1199B strain that overexpresses the NorA efflux pump was also used to conduct checkerboard experiments (see, Example 8 below). This strain of S. aureus 1199B is resistant to both norfloxacin and ethidium bromide.
(§2) K-12 E. coli and S. aureus were acquired from ATCC. The S. aureus strain was used in the BSL-2 facility. K-12 E. coli was grown in L. B. Miller media (Sigma-Aldrich) and S. aureus was grown in cation adjusted MHII media (Sigma-Aldrich). Tet^R E. coli was grown in L. B. Miller media containing 100 μg/mL Ampicillin.
(§3) MIC experiments were performed as described in the Clinical and Laboratory Standards Institute (CLSI) standard microdilution protocols. Bacteria was grown overnight from one CFU in media without antibiotics. Tet^R E. coli was grown in media containing 100 μg/mL Ampicillin. On the day of experiment, bacteria were knocked back to O.D. 600 nm=0.550 in the same media. These exponential phase bacteria were then diluted in antibiotics-free media to get […]. In a 96-well plate either L. B. Miller or MHII media was added followed by serially diluted compounds 1-11, tetracycline, or ampicillin. All the tryptophan based compounds were dissolved in DMSO and the final concentration of DMSO in each well was kept constant at 0.5% (v/v).
(§4) For the combination experiments, first, the BT or control was added to the media in the well followed by the antibiotics. The contents of the well were mixed before adding 20 μL of bacteria to get 4×10^5 CFU/mL per well. The plates were incubated at 37° C., 200 RPM for 24 hours before collecting results on the Biotek Cytation 3 plate reader. No more than three plates were stacked on top of each other at a time. Optical density of the wells was determined at λ=600 nm. Cells alone were considered as 0% inhibition and media alone was considered as 100% inhibition. Any inhibition greater than 80% was considered as the MIC. The results were reproduced three times before reporting.
(§5) All minimum inhibitory concentration (MIC) values for compounds 1-11 were determined according to the methods prescribed by the National Committee for Clinical Laboratory Standards (NCCLS, Methods for Dilution Antimicrobial Susceptibility Tests for Bacteria that grow aerobically; National Committee for Clinical Laboratory Standards 2000, 5th Edition, M7-A5). […]

[2] = test system: Tet^R E. coli; test: MIC, CLSI/NCCLS broth microdilution; format: cell-based, Escherichia coli; settings: 24 h; for MIC: Escherichia coli, read-out: Minimal Inhibitory Concentration (MIC) E. coli Tet^R; for Minimal Inhibitory Concentration (MIC) E. coli Tet^R: >80% growth inhibition, 37° C., substance alone
Method: as §1, §2, §3, §4, §5

[3] = test system: S. aureus (ATCC Accession No. 29213); test: MIC, CLSI/NCCLS broth microdilution; format: cell-based, Staphylococcus aureus; settings: read-out: Minimal Inhibitory Concentration (MIC) S. aureus
Method: as §1, §2, §3, §4, §5

[4] = test system: Tet^R E. coli; test: Membrane permeability and viability, confocal microscopy (propidium iodide / fluorescein diacetate); format: cell-based, Escherichia coli; settings: 0.1% (~1,670 μM) control detergent
Method: To test the membrane permeability of the Tet^R E. coli, the bacteria was first grown overnight from one CFU in media containing 100 μg/mL Ampicillin at 37° C. and 200 RPM. Tet^R E. coli was then knocked back to O.D. 600 nm=0.550 before use. In a sterile test tube, cells were added followed by either compounds 2 or 10 at half-MIC concentrations and incubated at 37° C. and 200 RPM. The concentration of DMSO was kept constant at 0.5% —by volume in each case. After 30 minutes of incubation, the cells were washed by centrifugation at 3000×g for 5 minutes and re-suspended in sterile phosphate buffered saline (PBS). Propidium iodide (30 μM, Thermo-Fischer) and fluorescein diacetate (60 μM, Sigma-Aldrich) were added to the Tet^R E. coli cells in the PBS, mixed by vortexing and incubated at 37° C. and 200 RPM. After 30 minutes, the cells were washed again by centrifugation at 3000×g for 5 minutes. The pellet was suspended in a fresh PBS, loaded onto a clean glass slide, covered with a cover slip and observed under Zeiss LSM 700 confocal microscope.
The study was designed to assess the membrane permeability and viability of the E. coli in the presence of BTs 2 and 10. The three panels in FIG. 6 show the bright field (BF) microscopic images (top row), the result when fluorescein diacetate (FDA) is present (middle row), and the presence of propidium iodide (PI, bottom row), if any. […] When it does, it intercalates in DNA, which leads to enhanced fluorescence. Fluorescein diacetate is incorporated into the cells during growth, but is not fluorescent. If the organism is or remains vital, the diester will be hydrolyzed and fluorescein will be observed by its fluorescence emission.
Controls for the permeability/viability assay were included for E. coli in the presence of a final concentration of 0.5% (v/v) DMSO (the vehicle for administration of BTs), and a final concentration of 0.1% […] Triton X-100. […] Thus, less than or equal to 0.5% DMSO (v/v) was always used; the control is shown in the second column. Triton X-100 is a potent detergent, which was used at 0.1% or ˜1,670 μM.

[5] = test system: HEK-293 cells; test: Mammalian cell permeability and vitality, confocal microscopy (propidium iodide / fluorescein diacetate); format: cell-based, human
Method: To test the permeability of HEK-293 cells, the cells were cultured in growth medium as described above. HEK-293 (90% confluent) were then seeded in a 96-well plate to get 30,000 cells/well. After 24 hours of incubation at 37° C. and 5% CO2, the spent media was replaced with media (DMEM and 10% FBS) containing compound 2 at either 20 μM or 80 μM. […] Triton X-100 at 0.1%—by volume (1670 μM) and DMSO 0.5% (v/v) were also used as controls. After 2 hours of incubation, spent media was replaced with PBS containing propidium iodide (30 μM) and fluorescein diacetate (60 μM) and incubated at 37° C. and 5% CO2. After 2 hour of incubation, the spend media was replaced with fresh PBS and the cells were observed under Zeiss LSM 700 confocal microscope. The images were reported without any alterations. The gain and the intensity in all the images were kept constant.
A compound that inhibits bacterial growth and penetrates into the microbe's cytosol may also penetrate into mammalian cells. A similar microscopic study was conducted with the human embryonic kidney (HEK-293) cell line. In this case, only compound 2 was studied. […] The microscopic study was therefore conducted at 20 μM, a value well below any inhibitory concentration, and at 80 μM, a concentration above all three MIC values. The 80 μM concentration was used to confirm the […] of 2 and to establish the lack of serum inhibition.

[6] = Staphylococcus aureus, ATCC29213, 24 h
[7] = >80% growth inhibition, 24 h, 37° C.

Molecule	MIC ([1]; Escherichia coli, K12, 24 h) [µM]	MIC [2] [µM]	MIC [3, 6] [µM]	melting point	MIC [1, 7] [µM]	Minimal Inhibitory Concentration (MIC) E. coli Tet^R [2] [µM]	MIC [3, 7] [µM]	MIC ([1]; Escherichia coli, K12, >80% growth inhibition, 24 h, 37° C.) [µM]	viability (fluorescein diacetate fluorescence) [4]	propidium iodide penetration (membrane permeability) [5]
Cl.Cl.N[C@H](Cc1c[nH]c2ccccc12)C(=O)NCCCCNC(=O)[C@@H](N)Cc1c[nH]c2ccccc12 [Compound 8, (S)-1-((4-((R)-2-Ammonio-3-(1H-indol-3-yl)propanamido)butyl)amino)-3-(1H-indol-3-yl)-1-oxopropan-2-aminium chloride]	> 128	> 128	> 128	204 °C (dec.)						
CC1(C)S[C@@H]2[C@H](NC(=O)[C@H](N)c3ccccc3)C(=O)N2[C@H]1C(=O)O [ampicillin, reference compound]		> 1000								
Cl.Cl.NCC(=O)Nc1cccc(NC(=O)CN)c1 [Compound 1, 2,2′-(1,3-Phenylenebis(azanediyl))bis(2-oxoethanaminium) chloride]	> 128	> 128	> 128	310 °C (dec.)	>128	>128	>128			
CN(C)[C@@H]1C(O)=C(C(N)=O)C(=O)[C@@]2(O)C(O)=C3C(=O)c4c(O)cccc4[C@@](C)(O)[C@H]3C[C@@H]12 [tetracycline, reference compound]		900 ± 100				900		~3		
Cl.N[C@@H](Cc1c[nH]c2ccccc12)C(=O)Nc1ccccc1 [Compound 11, (S)-3-(1H-Indol-3-yl)-1-oxo-1-(phenylamino)propan-2-aminium chloride]	> 128	> 128	> 128		>128	>128	>128			
O=C(CCc1c[nH]c2ccccc12)Nc1cccc(NC(=O)CCc2c[nH]c3ccccc23)c1 [Compound 4, N,N′-(1,3-Phenylene)bis(3-(1H-indol-3-yl)propanamide)]	> 128	> 128	> 128	154 to 156 °C						
Cl.Cl.N[C@@H](Cc1c[nH]c2ccccc12)C(=O)NCCCCCCNC(=O)[C@@H](N)Cc1c[nH]c2ccccc12 [Compound 9, (2S,2′S)-1,1′-(Hexane-1,6-diylbis(azanediyl))bis(3-(1H-indol-3-yl)-1-oxopropan-2-aminium) chloride]	> 128	128	> 128	193 °C (dec.)						
Triton X-100 [reference compound]									essentially all the cells were killed	strong signal from propidium iodide
